Experimental data as given in publication PMC8480776, “Selenium Derivatives as Promising Therapy for Chagas Disease: In Vitro and In Vivo Studies” (ACS Infectious Diseases, 2021).
Like-named read-outs stand apart in the source and are kept apart here.

What was measured:
[1] = system: T. cruzi epimastigotes, Tulahuen strain; assay: Screening against extracellular epimastigotes, Tulahuen strain; assay type: cell-based, Trypanosoma cruzi; conditions: Trypanosoma cruzi, TULAHUEN; 48 h + 24 h resazurin; read-out: Activity IC50, epimastigote form, Tulahuen strain
Vero cells = assay: Cytotoxicity test on Vero cells; assay type: cell-based; conditions: Chlorocebus sabaeus, 48 h + 24 h resazurin, read-out: Toxicity IC50 Vero cell
[2] = system: T. cruzi amastigotes, Arequipa strain; assay: Screening against intracellular amastigotes, Arequipa strain; assay type: cell-based, Trypanosoma cruzi; conditions: Trypanosoma cruzi; amastigotes in Vero cells, 72 h; read-out: activity IC50, Arequipa strain, am. forms
[3] = system: T. cruzi amastigotes, SN3 strain; assay: Screening against intracellular amastigotes, SN3 strain; assay type: cell-based, Trypanosoma cruzi; conditions: Trypanosoma cruzi; amastigotes in Vero cells, 72 h; read-out: activity IC50, SN3 strain, am. forms
[4] = system: T. cruzi amastigotes, Tulahuen strain; assay: Screening against intracellular amastigotes, Tulahuen strain; assay type: cell-based, Trypanosoma cruzi; conditions: Trypanosoma cruzi, TULAHUEN; amastigotes in Vero cells, 72 h; read-out: activity IC50, Tulahuen strain, am. forms
[5] = system: T. cruzi trypomastigotes, Arequipa strain; assay: Screening against bloodstream trypomastigotes, Arequipa strain; assay type: cell-based, Trypanosoma cruzi; conditions: Trypanosoma cruzi; bloodstream trypomastigotes, 24 h + 4 h resazurin; read-out: activity IC50, Arequipa strain, trypom. forms
[6] = system: T. cruzi trypomastigotes, Tulahuen strain; assay: Screening against bloodstream trypomastigotes, Tulahuen strain; assay type: cell-based, Trypanosoma cruzi; conditions: Trypanosoma cruzi, TULAHUEN; bloodstream trypomastigotes, 24 h + 4 h resazurin; read-out: activity IC50, Tulahuen strain, trypom. forms
[7] = system: Vero cells infected with T. cruzi Arequipa strain; assay: Infection rate in Vero cells (infected cells), Arequipa strain; assay type: cell-based; conditions: Trypanosoma cruzi, 72 h of treatment
T. cruzi Arequipa strain = assay: In vivo trypanocidal activity on BALB/c mice (acute and chronic Chagas disease); parameters: species or system Trypanosoma cruzi
Procedure: (§1) Female BALB/c mice aged 10–12 weeks and with a size of 20–24 g were divided into five groups (n = 3 per group): 0, negative control group (uninfected and untreated mice); I, positive control group (infected and untreated mice); II, BZN group (infected mice treated with BZN); III, 26 group (infected mice treated with 26); and IV, 28 group (infected mice treated with 28).
Mice were infected by intraperitoneal injection of 5 × 10^5 BTs of T. cruzi Arequipa strain per mouse in 200 μL PBS.[42] Subsequently, the treatment was intraperitoneally administered (∼200 μL) once daily for 5 consecutive days.
(§2) The tested selenocompounds and BZN were prepared at 2 mg·mL^–1 in an aqueous suspension vehicle containing 5% (v/v) DMSO and 0.5% (w/v) hydroxypropyl methylcellulose, as previously reported.[52] Compounds (20 mg·kg^–1 per day) were administered for 5 consecutive days (total dosages of 100 mg·kg^–1), and vehicle only was administered in the negative and positive control groups. Treatments began when the infection was confirmed (9 dpi) for acute-phase-treated mice, and when it was established that the animals moved into the chronic phase (100 dpi, for chronic-phase-treated mice; Scheme 1).
[…]. Parasitemia was expressed as parasites·mL^–1.
Immunosuppression was performed by intraperitoneal injection of three doses of 200 mg·kg^–1 of ISOPAC CP at 3–4 day intervals (Scheme 1), as previously reported.[53] Mice were closely monitored for side effects or for secondary infections due to immunosuppression. Within 7 days after the last CP injection, parasitemia reactivation was determined by counting BTs according the procedure described for parasitemia in the acute phase.[42]
On 145 dpi, the mice were euthanized using CO2, followed by exsanguination via cardiac puncture, and blood was collected. […]. In addition, spleens were weighed to assess splenomegaly.[42]
DNA extraction of the post-mortem organs/tissues was performed using Wizard Genomic DNA Purification Kit,[41] and the extracted DNA was subjected to amplification by PCR based on the spliced leader (SL) intergenic region sequence of T. cruzi (for detailed description, see literature reported previously).[55] Finally, the PCR products were resolved by electrophoresis on a 2% agarose gel (containing GelRed nucleic gel stain) for 90 min at 90 V.
Circulating antibodies in serum against both antigens were quantitatively evaluated in triplicate by the ELISA test in 96-well plates using diluted serum samples (1:80 in PBS), as previously described.[41]

[8] = assay type: in vivo, BALB/c mice; conditions: variation vs control
Procedure: as §1, §2
Serum samples obtained from blood in several days post-infection (Scheme 1) were sent to the Biochemical Service (University of Granada) to measure a series of biochemical parameters with the commercial Cromakit using a clinical chemistry analyzer (BS-200, Shenzhen Mindray Biomedical Electronics Co., LTD), as previously described.[41]

[9] = system: epimastigotes of T. cruzi Arequipa strain; assay: Flow cytometry analysis of nucleic acid levels (acridine orange); assay type: cell-based, Trypanosoma cruzi; conditions: IC25 concentrations, 72 h
[10] = treatment in acute phase, 15th dpi (2 days after treatment)
[11] = treatment in acute phase, necropsy day
[12] = treatment in chronic phase, 106th dpi (2 days after treatment)
[13] = treatment in chronic phase, necropsy day

## O=C(Cn1ccnc1[N+](=O)[O-])NCc1ccccc1 [BZN, benznidazole, reference compound]
[1]
  IC50: 19.7 ± 1.7 µM
Vero cells
  IC50: 80.4 ± 7.1 µM
[2]
  IC50: 8.3 ± 0.7 µM
[3]
  IC50: 16.6 ± 1.4 µM
[4]
  IC50: 10 ± 0.8 µM
[5]
  IC50: 12.4 ± 1.1 µM
[6]
  IC50: 15.1 ± 1.3 µM
[7]
  IC50: 15.1 µM
T. cruzi Arequipa strain; 20 mg·kg–1 per day i.p. 5 days from 9 dpi, necropsy 145 dpi
  parasite-free organs/tissues by PCR, acute phase treatment: 28.6%
T. cruzi Arequipa strain; 20 mg·kg–1 per day i.p. 5 days from 100 dpi
  anti-T. cruzi IgG levels (ELISA), chronic phase treatment: similar
T. cruzi Arequipa strain; 20 mg·kg–1 per day i.p. 5 days from 100 dpi, necropsy 145 dpi
  parasite-free organs/tissues by PCR, chronic phase treatment: 42.9%
[8]; [10]
  ALP (liver marker): = (=, variation ≤ 10%)
  ALT/GPT (liver marker): ++ (++/--, 20-30% increase/decrease over the range)
  AST/GOT (liver marker): ++++ (++++/----, ˃ 40% increase/decrease over the range)
  CK-MB (heart marker): = (=, variation ≤ 10%)
  LDH (heart marker): = (=, variation ≤ 10%)
  Total bilirubin (liver marker): ++++ (++++/----, ˃ 40% increase/decrease over the range)
  Urea (kidney marker): -- (++/--, 20-30% increase/decrease over the range)
  Uric acid (kidney marker): ---- (++++/----, ˃ 40% increase/decrease over the range)
[8]; [11]
  ALP (liver marker): = (=, variation ≤ 10%)
  ALT/GPT (liver marker): = (=, variation ≤ 10%)
  AST/GOT (liver marker): + (+/-, 10-20% increase/decrease over the range)
  CK-MB (heart marker): - (+/-, 10-20% increase/decrease over the range)
  LDH (heart marker): = (=, variation ≤ 10%)
  Total bilirubin (liver marker): ++ (++/--, 20-30% increase/decrease over the range)
  Urea (kidney marker): -- (++/--, 20-30% increase/decrease over the range)
  Uric acid (kidney marker): - (+/-, 10-20% increase/decrease over the range)
[8]; [12]
  ALP (liver marker): ++++ (++++/----, ˃ 40% increase/decrease over the range)
  ALT/GPT (liver marker): ++ (++/--, 20-30% increase/decrease over the range)
  AST/GOT (liver marker): + (+/-, 10-20% increase/decrease over the range)
  CK-MB (heart marker): -- (++/--, 20-30% increase/decrease over the range)
  LDH (heart marker): -- (++/--, 20-30% increase/decrease over the range)
  Total bilirubin (liver marker): + (+/-, 10-20% increase/decrease over the range)
  Urea (kidney marker): - (+/-, 10-20% increase/decrease over the range)
  Uric acid (kidney marker): - (+/-, 10-20% increase/decrease over the range)
[8]; [13]
  ALP (liver marker): = (=, variation ≤ 10%)
  ALT/GPT (liver marker): ++ (++/--, 20-30% increase/decrease over the range)
  AST/GOT (liver marker): + (+/-, 10-20% increase/decrease over the range)
  CK-MB (heart marker): -- (++/--, 20-30% increase/decrease over the range)
  LDH (heart marker): -- (++/--, 20-30% increase/decrease over the range)
  Total bilirubin (liver marker): ++ (++/--, 20-30% increase/decrease over the range)
  Urea (kidney marker): = (=, variation ≤ 10%)
  Uric acid (kidney marker): - (+/-, 10-20% increase/decrease over the range)
[9]
  inhibition of nucleic acid levels: up to 22%
